The results in this text go back to article PMC9653339, “Revisiting the anticancer properties of phosphane(9-ribosylpurine-6-thiolato)gold(I) complexes and their 9H-purine precursors” (Journal of Biological Inorganic Chemistry, 2022).

Series [1] has as its system EA.hy926 endothelial hybrid cells. Put plainly: MTT cell viability assay, EA.hy926. It is filed as cell-based, human. Conditions: 72 h. How it is done:
(§1) All complexes stable in solution were investigated for their anti-proliferative effect on nine human cancer cell lines, using the MTT-based cell viability assay. Cells were seeded in 96-well microtiter plates (Sarstedt) with a cell density of 0.05 × 10^6 cells per ml and 100 µL per well and incubated for 24 h. A dilution series of test compounds was added to the wells, ranging in twelve steps from 100 µM to 5 nM. As a control, equal amounts of DMSO were added. Treated cells were further incubated for 72 h. Then, 12.5 µL per well of MTT solution (0.05% in phosphate-buffered saline (PBS)) was added, followed by another 2 h of incubation. The plates were centrifuged, the medium was discarded and 25 µL per well of SDS solution in DMSO (10% SDS, 0.6% AcOH in DMSO) was added to dissolve the formazan. The plates were incubated for a further hour. Absorbances at 570 nm and 630 nm were measured using a plate reader (Tecan). Background absorbance (630 nm) was subtracted from the formazan signal (570 nm). The resulting absorbance was directly proportional to the amount of viable cells. The control was normalized to 100% viable cells and viability of cells treated with test compounds was calculated accordingly. IC50 values were calculated based on a sigmoidal fit model using GraphPad Prism. Means and SD were calculated from at least four independent experiments.
In general terms: Tetrazolium dyes change colour on reduction, which living cells bring about.

Series [2] deals with HCT-116^wt colon carcinoma cells. Put plainly: MTT cell viability assay, HCT-116wt. Conditions: 72 h. It is filed as cell-based, human. The procedure:
as §1, with “Cells” for “All complexes stable in solution were investigated for their anti-proliferative effect on nine human cancer cell lines, using the MTT-based cell viability assay. Cells”

The subject of series [3] is HCT-116^p53−/− (p53 knockout mutant) colon carcinoma cells. Put plainly: MTT cell viability assay, HCT-116 p53-/-. It is filed as cell-based, human. Conditions: 72 h. How it is done:
as §1, with “Cells” for “All complexes stable in solution were investigated for their anti-proliferative effect on nine human cancer cell lines, using the MTT-based cell viability assay. Cells”

Series [4] has as its system HeLa cervix carcinoma cells. Put plainly: MTT cell viability assay, HeLa. It counts as cell-based, human. Conditions: 72 h. How it is done:
as §1

For series [5], the system named is MCF-7 mamma carcinoma cells. Put plainly: MTT cell viability assay, MCF-7. It is filed as cell-based, human. Conditions: 72 h, read-out: IC50 MCF7. The procedure: as §1
The next series concerns 518A2 melanoma cells. Put plainly: MTT cell viability assay, 518A2. It counts as cell-based, human. Conditions: 72 h. The procedure:
as §1

In series [6] the test system is human adult dermal fibroblasts HDFa. Put plainly: MTT cell viability assay, HDFa. It is filed as cell-based. Conditions: 72 h, non-malignant fibroblasts. How it is done:
as §1

A further series deals with EA.hy926 cells. Put plainly: Tube formation assay. It is filed as cell-based, human. Conditions: 5 µM (CA-4 0.01 µM). The procedure: EA.hy926 cells were cultured overnight in endothelial medium (37 °C, 95% humidity, 5% CO2) instead of DMEM. In addition, Matrigel was thawed on ice in the refrigerator. Pipette tips and 96-well plates were stored at − 20 °C overnight. The next day, 30 µL of Matrigel was added to each well bubble-free and the well plate was incubated for approximately 45 min (37 °C, 95% humidity, 5% CO2). Subsequently, 100 µL of cell suspension was added to each well at a concentration of 0.4–0.5 × 10^6 cells/mL onto the Matrigel-treated wells and the substances were added in tenfold pre-dilution. This was followed by incubation for approximately 6 h, until tubes formed in the negative control with DMSO. At this point, documentation under the microscope took place.

Series [7] relates to HT-29 colon carcinoma cells. Put plainly: MTT cell viability assay, HT-29. It is filed as cell-based, human. Conditions: 72 h. How it is done:
as §1

Series [8] deals with mdr KB-V1^Vbl cervix carcinoma cells. Put plainly: MTT cell viability assay, KB-V1 (with and without verapamil). It counts as cell-based, human. Conditions: 72 h, without verapamil. The procedure: as §1
The test system of series [9] is mdr MCF-7^Topo mamma carcinoma cells. Put plainly: MTT cell viability assay, MCF-7Topo. Conditions: 72 h, read-out: IC50 MCF7^Topo. It counts as cell-based, human. How it is done: as §1
The test system of a further series is U-87 glioblastoma cells. Put plainly: MTT cell viability assay, U-87. It counts as cell-based, human. Conditions: 72 h. How it is done: as §1
Series [10] in a line: Stability by NMR in DMSO-d6 + 5% D2O. It is filed as physicochemical. Conditions: for Stability (31P NMR): DMSO-d6 with additional D2O, three days. The source says:
In a further corroboration of the complex stability, the similarity of the chalcogens sulfur and selenium was exploited. The selenolato complex 10 was synthesized and examined for its stability under identical conditions. Since ^77Se is a 1/2 spin nucleus with roughly 8% natural abundance, its compounds can be investigated directly. Depending on whether a break in the Se–Au or the Au–PR3 bond would occur, the shift would change by several hundred ppm and serve as unequivocal evidence. […] In addition, we investigated the stability of complexes 1 and 5 as representatives of the series of purines and purine nucleosides, respectively, in cell culture medium by UV/Vis spectroscopy.

In series [11] the test system is caspase 3/7 in 518A2 melanoma cells. Put plainly: Caspase 3/7 activation. It counts as cell-based, human. Conditions: 518A2 cells, 10 µM, 6 h. How it is done: The assay was conducted, following manufacturer’s instructions using the Cell Meter Caspase 3/7 activity apoptosis assay kit (AAT Bioquest). Briefly, 518A2 melanoma cells were seeded in 96-well flat black microtiter plates with a density of 0.22 × 10^6 cells per mL and 90 µL per well. After 24 h of incubation, 10 µL per well of tenfold diluted test compounds was added, and the cells were incubated for a further 6 h. Subsequently, 100 µL per well of Caspase 3/7 substrate working solution was added and incubated for 1 h in the dark at room temperature. The fluorescence was measured using a micro-plate reader (Tecan) at ex/em = 490/525 nm.

What is called IC50 is the concentration at which inhibition is half-maximal. Consider `CSc1ncnc2c1ncn2[C@@H]1O[C@H](CO)[C@@H](O)[C@H]1O` [6-MMR, 6-methylmercaptopurine riboside, reference compound], for which the IC50 in [1] was 0.11 ± 0.001 µM; in series [2] it was 0.1 ± 0.008 µM; in [3] it was 0.05 ± 0.001 µM; in [4], 0.0056 ± 0.0003 µM; in [5], 0.09 ± 0.003 µM; with 518A2 melanoma cells it was 1.4 ± 0.12 µM. The IC50 in [6] was 5.8 ± 0.46 µM. The “Inhibition of tube formation” value in the series on EA.hy926 cells was “inhibitory effects”.

On to `COc1ccc(/C=C\c2cc(OC)c(OC)c(OC)c2)cc1O` [CA-4, combretastatin A-4], for which the “Inhibition of tube formation” value with EA.hy926 cells is “Complete inhibition of tube formation”.

As to `c1ccc([PH]([Au][S]c2ncnc3[nH]cnc23)(c2ccccc2)c2ccccc2)cc1` [Complex 1, (1,7-Dihydro-6H-purine-6-thiolato) (triphenylphosphane) gold(I)], the IC50 in [1] came to 2.9 ± 0.7 µM; in series [2] it was 4.9 ± 1 µM; in series [3], 1.7 ± 0.3 µM; in series [4], 2.6 ± 0.04 µM; in [7] it was 8 ± 0.73 µM; in series [8], 1.9 ± 0.1 µM. Besides, the half-maximal inhibitory concentration (IC50) in [5] turned out to be 13 ± 1.12 µM; in series [9] it was 6.6 ± 0.65 µM; in the series on U-87 glioblastoma cells, 0.91 ± 0.09 µM; in the series with 518A2 melanoma cells, 8 ± 0.71 µM.

As to `Nc1nc([S][Au][PH](c2ccccc2)(c2ccccc2)c2ccccc2)c2nc[nH]c2n1` [Complex 2, (2-Amino-1,7-dihydro-6H-purine-6-thiolato) (triphenylphosphane) gold(I)], the IC50 in series [1] is 0.5 ± 0.1 µM; in [2] it was 0.8 ± 0.01 µM; in series [3] it was 0.58 ± 0.01 µM; in series [4], 0.6 ± 0.05 µM; in series [7], 4.4 ± 0.32 µM; in [8], 0.3 ± 0.07 µM. The IC50 turned out to be 2.2 ± 0.13 µM in series [5], 3.7 ± 0.37 µM in series [9], 1 ± 0.1 µM with U-87 glioblastoma cells and 4.4 ± 0.33 µM with 518A2 melanoma cells.

Turning to `CC[PH](CC)(CC)[Au][S]c1ncnc2[nH]cnc12` [Complex 3, (1,7-Dihydro-6H-purine-6-thiolato) (triethylphosphane) gold(I)], the IC50 was determined as 1.5 ± 0.11 µM in series [1]; 6.3 ± 0.3 µM in [2]; 3.6 ± 0.8 µM in [3]; 6.8 ± 0.62 µM in series [4]; 6.4 ± 1.4 µM in series [7]; 2.5 ± 0.32 µM in [8]. Also, the IC50 amounted to 9.4 ± 0.53 µM in series [5], 10 ± 0.26 µM in series [9], 6.9 ± 0.47 µM in the series on U-87 glioblastoma cells and 8.4 ± 0.62 µM in the series on 518A2 melanoma cells.

Take `CC[PH](CC)(CC)[Au][S]c1nc(N)nc2[nH]cnc12` [Complex 4, (2-Amino-1,7-dihydro-6H-purine-6-thiolato) (triethylphosphane) gold(I)]: the IC50 in [1] stood at 1.1 ± 0.08 µM; in series [2], 25 ± 3.1 µM; in series [3] it was 11 ± 0.5 µM; in [4], 15 ± 4.1 µM; in [7], 5.8 ± 1.7 µM; in [8] it was 12 ± 1 µM. In addition, the IC50 in series [5] turned out to be 21 ± 3.4 µM; in series [9], 4.9 ± 0.43 µM; in the series with U-87 glioblastoma cells it was 7 ± 0.66 µM; in the series with 518A2 melanoma cells it was 16 ± 0.91 µM. For the same compound, the “Stability (31P NMR)” value in [10] was “did not change noticeably”.

With `CC[PH](CC)(CC)[Au][S]c1ncnc2c1ncn2[C@@H]1O[C@H](CO)[C@@H](O)[C@H]1O` [Complex 7, (1,7-Dihydro-6H-purine-9-β-D-ribofuranosyl-6-thiolato) (triethylphosphane) gold(I)], the IC50 in series [1] is 0.43 ± 0.02 µM; in series [2], 1.6 ± 0.2 µM; in [3], 0.5 ± 0.03 µM; in series [4], 0.51 ± 0.05 µM; in [7], 2.2 ± 0.17 µM; in series [8], 0.4 ± 0.04 µM. For the same compound, the IC50 came to 2.1 ± 0.2 µM in [5]; 1.2 ± 0.11 µM in series [9]; 1.1 ± 0.11 µM in the series on U-87 glioblastoma cells; 3 ± 0.21 µM in the series with 518A2 melanoma cells; 7 ± 0.62 µM in series [6]. In series [11], the “Caspase 3/7 activity” value is listed as “even exceeded the effects of the three controls”. In addition, the “Stability (31P NMR)” value in [10] is listed as “did not change noticeably”.

`CC[PH](CC)(CC)[Au][S]c1nc(N)nc2c1ncn2[C@@H]1O[C@H](CO)[C@@H](O)[C@H]1O` [Complex 8, (2-Amino-1,7-dihydro-6H-purine-9-β-D-ribofuranosyl-6-thiolato) (triethylphosphane) gold(I)]: the IC50 in series [1] was determined as 1.7 ± 0.14 µM; in series [2], 5.5 ± 0.3 µM; in series [3], 1.8 ± 0.06 µM; in [4], 2.4 ± 0.21 µM; in series [7] it was 4.5 ± 0.34 µM; in [8], 0.7 ± 0.07 µM. Moreover, the IC50 amounted to 10 ± 0.83 µM in series [5]; 3.6 ± 0.34 µM in [9]; 1 ± 0.03 µM in the series with U-87 glioblastoma cells; 3.4 ± 0.33 µM in the series on 518A2 melanoma cells; 7 ± 0.7 µM in series [6].

As to `CC[PH](CC)(CC)[Au][S]c1nc([S][Au][PH](CC)(CC)CC)c2nc[nH]c2n1` [Complex 9, (1,7-Dihydro-6H-purine-2,6-bisthiolato) (triethylphosphane) gold(I)], the IC50 in [2] was 11.2 ± 0.78 µM; in series [3] it was 3.7 ± 0.35 µM; in series [4], 17.6 ± 0.8 µM; in series [7], 11.1 ± 0.32 µM; in the series with 518A2 melanoma cells it was 13.4 ± 1.2 µM.

In the case of `CC[PH](CC)(CC)[Au][Se]c1ncnc2[nH]cnc12` [Complex 10, (1,7-Dihydro-6H-purine-6-selenolato) (triethylphosphane) gold(I)], the “Stability (77Se NMR)” value in series [10] (DMSO-d6 + 5% D2O, identical conditions) is on record as “no change in the shift of the ^77Se NMR signal”.
